These results are taken from US20100183563A1, “DENTINOGENESIS PROMOTER AND DENTINOGENIC PULP-CAPPING MATERIAL” (ORGAN TECHNOLOGIES, INC., priority 2007, published 2010).

Type in all cases: cell-based, human
In assay [1] the test system is dental pulp stem cells (DPSCs). The assay can be described thus: Proliferation of dental pulp stem cells, cell number by the MTS method. As to conditions: for effect on proliferation of DPSCs compared with the control: 1 μM, Example 2, FIG. 5. The procedure: Dental pulp stem cells (DPSCs) were isolated in accordance with a method of Gronthos et al. (Proc. Natl. Acad. Sci. USA, 97: 13625-30, 2000) from a human extracted tooth that was submitted with informed consent under the permission of Okayama University Dental School Ethics Committee.
Specifically, pulp obtained from an extracted human tooth was enzyme-treated for 30 minutes at 37° C. with 3 mg/ml type 1 collagenase (Worthington Biochemicals Corp.) and 4 mg/ml dispase (Roche Diagnostic/Boehringer Mannheim Corp.), and then cultured using α-MEM culture medium containing 10% fetal bovine serum (FBS), L-ascorbic acid (0.1 mM), L-glutamine (2 mM), penicillin (100 μg/ml), and streptomycin (100 μg/ml).
Specifically, the DPSCs prepared above (1) were cultured under 5% CO2 at 37° C. in α-MEM culture medium including 10% fetal bovine serum (FBS) containing SVS at a concentration of 1 μM, L-ascorbic acid (0.1 mM), L-glutamine (2 mM), penicillin (100 μg/ml), and streptomycin (100 μg/ml). The culture medium was exchanged twice a week, and the number of cells on […] was indirectly evaluated using the MTS method (Barltrop, J. A. et al. 5-(3-carboxymethoxyphenyl)-2-(4,5-dimenthylthiazoly)-3-(4-sulfophenyl)tetrazolium, inner salt (MTS) and related analogs of 3-(4,5-dimethylthiazolyl)-2,5-diphenyl-tetrazolium bromide (MTT) reducing to purple water-soluble formazans as cell-viability indicators. Bioorg. & Med. Chem. Lett. 1, 611, 1991).
On day 0, day 3, and day 5 from the beginning of cultivation, the cell number of DPSCs was measured using the MTS method.
On day 5 from the beginning of cultivation, the cell number of DPSCs was measured using the MTS method.
Specifically, in Example 1, section (2), dental pulp stem cells (DPSCs) were cultured in the presence of each of the following: (a) simvastatin (1 μM) (simvastatin added group); (b) simvastatin (1 μM) and mevalonate (1 mM) (mevalonate added group); and (c) simvastatin (1 μM), mevalonate (1 mM) and Fasudil (10 μM) (Fasudil combined use group). On day 0, day 3, and day 5 from the beginning of cultivation, the cell number of DPSCs was measured using the MTS method.
(Tetrazolium assays rely on reduction of a dye to a coloured formazan, in cell work by metabolically active cells.)

Assay [2] relates to osteocalcin (OCN) gene expression in dental pulp stem cells (DPSCs). As to the kind of experiment: Gene expression of OCN (marker of calcification) in DPSCs by RT-PCR. As to conditions: for gene expression of OCN compared with the control and the comparison (BMP-2): 1 μM, day 14, Example 2, FIG. 6. The procedure:
(§1) Specifically, the DPSCs prepared above (1) were cultured under a 5% CO2 gas phase at 37° C. in α-MEM culture medium including 10% fetal bovine serum (FBS) containing SVS at a concentration of 1 μM, L-ascorbic acid (0.1 mM), L-glutamine (2 mM), penicillin (100 μg/ml), and streptomycin (100 μg/ml). Total RNA was collected from cells obtained on day 3, day 7, and day 10 from the beginning of cultivation, and gene expression of dentin sialophosphoprotein (DSPP), i.e., an odontoblast-specific marker (Ritchie H H et al. J. Biol. Chem., 269:3698-702, 1994; Butler W T et al. Matrix., 12:343-51, 1992), and gene expression of osteocalcin (OCN), i.e., a marker of calcification (Bronckers A L et al. Connect Tissue Res., 22:65-70, 1989) were evaluated using qualitative RT-PCR (Narayanan K et al., J. Biol. Chem., 281(28):19064-71, 2006).
Dental pulp stem cells (DPSCs) were cultured in a manner similar to Example 1, section (3), using simvastatin (1 μM), fluvastatin (1 μM), mevastatin (1 μM), lovastatin (1 μM), and plavastatin (200 μM) respectively as HGM-CoA reductase inhibitors. Gene expression of OCN, i.e., a marker of calcification was evaluated on day 14, using qualitative RT-PCR.

For assay [3], the system named is dentin sialophosphoprotein (DSPP) gene expression in dental pulp stem cells (DPSCs). The assay can be described thus: Gene expression of DSPP (odontoblast-specific marker) in DPSCs by RT-PCR. As to conditions: SVS 1 μM, p=0.0111. The procedure:
as §1

On to `O=C(O)C[C@H](O)C[C@H](O)/C=C/c1c(C2CC2)nc2ccccc2c1-c1ccc(F)cc1` [pitavastatin], for which the “effect on proliferation of DPSCs compared with the control” value in assay [1] (day 5) is recorded as “inhibited proliferation of DPSCs with a significant difference”.

Consider `CC(O)(CCO)CC(=O)O` (stereo not drawn) [mevalonate], for which, in assay [1] (simvastatin 1 μM + mevalonate 1 mM, day 5, FIG. 8), the “effect of mevalonate supply on simvastatin-induced inhibition of DPSC proliferation” value is “disappearance of the cell proliferation inhibiting effect”.

Turning to `CC(C)n1c(/C=C/C(O)CC(O)CC(=O)O)c(-c2ccc(F)cc2)c2ccccc21` (stereo not drawn) [fluvastatin], the “gene expression of OCN compared with the control and the comparison (BMP-2)” value in assay [2] is “increase in gene expression of OCN”. Also, the “effect on proliferation of DPSCs compared with the control” value in assay [1] (day 5) is reported as “inhibited proliferation of DPSCs with a significant difference”.

Turning to `CC[C@H](C)C(=O)O[C@H]1C[C@@H](C)C=C2C=C[C@H](C)[C@H](CC[C@@H]3C[C@@H](O)CC(=O)O3)[C@H]21` [lovastatin], the “gene expression of OCN compared with the control and the comparison (BMP-2)” value in assay [2] is reported as “increase in gene expression of OCN”. Further, the “effect on proliferation of DPSCs compared with the control” value in assay [1] (day 5) is listed as “inhibited proliferation of DPSCs with a significant difference”.

Take `O=S(=O)(c1cccc2cnccc12)N1CCCNCC1` [Fasudil]: the “effect on proliferation of DPSCs” value in assay [1] (Fasudil at not less than 10 μM (tested 1, 10, 100 μM), day 5, FIG. 7) is reported as “inhibited proliferation of DPSCs”. The “effect on cell proliferation of DPSCs, Fasudil combined use group” value in assay [1] (simvastatin 1 μM + mevalonate 1 mM + Fasudil 10 μM, day 5, FIG. 8) is listed as “greater inhibition of cell proliferation of DPSCs than the comparison”.

As for `CCC(C)(C)C(=O)O[C@H]1C[C@@H](C)C=C2C=C[C@H](C)[C@H](CC[C@@H]3C[C@@H](O)CC(=O)O3)[C@H]21` [simvastatin], the “increase in gene expression of OCN compared with the BMP-2” value in assay [2] (SVS 1 μM vs BMP-2 100 ng/ml, DPSCs, p=0.0002, Scheffe's multiple comparison test) was determined as 7.4 fold. Moreover, the “increase in gene expression of OCN compared with the control” value in assay [2] (SVS 1 μM, DPSCs, p=0.0004, Scheffe's multiple comparison test) was found to be 18.8 fold. Also, in assay [3], the “increase in gene expression of DSPP” value worked out at 10.9 fold. Moreover, the “proliferation of dental pulp stem cells (DPSCs)” value in assay [1] (SVS 1 μM, day 5 from the beginning of cultivation, vs control (PBS), significant decrease, p<0.0001) turned out to be 0.73 fold.

Regarding `CC[C@H](C)C(=O)O[C@H]1CCC=C2C=C[C@H](C)[C@H](CC[C@@H]3C[C@@H](O)CC(=O)O3)[C@H]21` [mevastatin], the “gene expression of OCN compared with the control and the comparison (BMP-2)” value in assay [2] is “increase in gene expression of OCN”. In assay [1] (day 5), the “effect on proliferation of DPSCs compared with the control” value was “inhibited proliferation of DPSCs with a significant difference”.

B1: Noggin: a BMP inhibitor (R&D systems) (protein, UniProt Q13253 28-232, looked up)
Noggin: QHYLHIRPAPSDNLPLVDLIEHPDPIFDPKEKDLNETLLRSLLGGHYDPGFMATSPPEDRPGGGGGAAGGAEDLAELDQLLRQRPSGAMPSEIKGLEFSEGLAQGKKQRLSKKLRRKLQMWLWSQTFCPVLYAWNDLGSRFWPRYVKVGSCFSKRSCSVPEGMVCKPSKSVHLTVLRWRCQRRGGQRCGWIPIQYPIISECKCSC
Take B1: the “effect on cellular proliferation of DPSCs compared with the control” value in assay [1] (day 5, Example 4, FIG. 9, statin = simvastatin 1 μM) is “an effect on cellular proliferation of DPSCs was not observed”.
